Assay results published in ChEMBL document CHEMBL1201862, “PubChem BioAssay data set” (2004).
Active and inactive are the calls of the source.

What was measured:
Vero = assay: cells; format: functional; conditions: Chlorocebus sabaeus
[1] = biological target: T1, Short transient receptor potential channel 4 (Mus musculus, UniProt Q9QUQ5); assay: calcium entry via TRPC4 opening agents – cell-based, HEK293 TRPC4/mu-opioid, Fluo-4 calcium, dose response (AID 434937); format: functional
T1 sequence (Q9QUQ5 whole entry): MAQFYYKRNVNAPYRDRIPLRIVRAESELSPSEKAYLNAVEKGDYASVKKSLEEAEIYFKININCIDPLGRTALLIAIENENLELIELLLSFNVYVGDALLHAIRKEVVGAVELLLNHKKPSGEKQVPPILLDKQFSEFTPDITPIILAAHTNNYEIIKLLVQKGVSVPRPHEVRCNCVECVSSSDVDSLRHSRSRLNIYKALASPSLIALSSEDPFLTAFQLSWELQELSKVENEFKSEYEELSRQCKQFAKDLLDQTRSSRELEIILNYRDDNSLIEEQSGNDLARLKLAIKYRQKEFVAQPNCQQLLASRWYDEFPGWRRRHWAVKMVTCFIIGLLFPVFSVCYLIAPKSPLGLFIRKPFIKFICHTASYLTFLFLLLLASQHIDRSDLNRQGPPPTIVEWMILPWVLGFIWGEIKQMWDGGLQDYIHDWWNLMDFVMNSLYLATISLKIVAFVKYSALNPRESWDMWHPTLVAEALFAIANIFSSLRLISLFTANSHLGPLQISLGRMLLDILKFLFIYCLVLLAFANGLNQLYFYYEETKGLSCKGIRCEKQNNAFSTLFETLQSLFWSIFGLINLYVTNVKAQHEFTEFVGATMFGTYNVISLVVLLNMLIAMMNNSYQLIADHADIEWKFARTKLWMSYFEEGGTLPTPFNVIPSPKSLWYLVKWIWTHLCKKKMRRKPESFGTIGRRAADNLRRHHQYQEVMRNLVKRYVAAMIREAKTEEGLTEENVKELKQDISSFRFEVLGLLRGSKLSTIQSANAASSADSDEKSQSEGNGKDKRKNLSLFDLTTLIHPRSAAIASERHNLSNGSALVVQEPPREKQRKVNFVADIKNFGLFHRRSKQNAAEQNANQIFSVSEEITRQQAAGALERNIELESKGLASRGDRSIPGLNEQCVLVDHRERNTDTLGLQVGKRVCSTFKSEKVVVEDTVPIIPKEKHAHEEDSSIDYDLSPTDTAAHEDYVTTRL

[2] = biological target: 5-hydroxytryptamine receptor 5A (Homo sapiens, UniProt P47898); assay: Counterscreen for agonists of OPRM1-OPRD1 heterodimerization: luminescence-based cell-based high throughput dose response assay to identify agonists of 5-hydroxytryptamine (serotonin) 5A receptor (HTR5A). [Related pubchem assays (depositor defined):AID504326, AID504355, AID504692, AID504904, AID504905]; format: functional
Sequence of 5-hydroxytryptamine receptor 5A (P47898 whole entry): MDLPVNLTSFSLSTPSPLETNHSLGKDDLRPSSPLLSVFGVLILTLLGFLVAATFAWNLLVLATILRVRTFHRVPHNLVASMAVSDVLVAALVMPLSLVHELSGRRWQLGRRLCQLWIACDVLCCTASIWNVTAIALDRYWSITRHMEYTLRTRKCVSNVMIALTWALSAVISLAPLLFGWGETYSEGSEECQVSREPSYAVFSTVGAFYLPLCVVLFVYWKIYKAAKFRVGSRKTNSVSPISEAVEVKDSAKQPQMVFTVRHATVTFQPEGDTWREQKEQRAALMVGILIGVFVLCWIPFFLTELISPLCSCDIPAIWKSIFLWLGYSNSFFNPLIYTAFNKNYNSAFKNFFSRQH

Mu-type opioid receptor = Mu-type opioid receptor (Homo sapiens, UniProt P35372); assay: (§1) Counterscreen for agonists of heterodimerization of the mu 1 (OPRM1) and delta 1 (OPRD1) opioid receptors: Luminescence-based cell-based high throughput dose response assay to identify agonists of OPRM1 homodimerization.; format: functional
Sequence of Mu-type opioid receptor (P35372 whole entry): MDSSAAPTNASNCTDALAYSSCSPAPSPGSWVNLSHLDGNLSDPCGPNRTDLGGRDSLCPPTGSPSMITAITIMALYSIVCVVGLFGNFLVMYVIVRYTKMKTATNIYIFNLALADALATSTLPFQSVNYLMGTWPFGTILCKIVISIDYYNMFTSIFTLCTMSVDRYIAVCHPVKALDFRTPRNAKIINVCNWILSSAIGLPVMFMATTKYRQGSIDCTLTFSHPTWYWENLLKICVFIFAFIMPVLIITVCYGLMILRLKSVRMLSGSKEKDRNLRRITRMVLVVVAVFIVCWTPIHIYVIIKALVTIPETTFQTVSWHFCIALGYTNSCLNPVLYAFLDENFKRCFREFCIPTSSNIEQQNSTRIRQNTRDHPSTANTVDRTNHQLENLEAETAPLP

[3] = biological target: Delta-type opioid receptor (Homo sapiens, UniProt P41143); assay: as §1, with “of OPRD1” for “of OPRM1”, “homodimerization. [Related pubchem assays (depositor defined):AID504326, AID504355, AID504692, AID504904, AID504905]” for “homodimerization.”; format: functional
Sequence of Delta-type opioid receptor (P41143 whole entry): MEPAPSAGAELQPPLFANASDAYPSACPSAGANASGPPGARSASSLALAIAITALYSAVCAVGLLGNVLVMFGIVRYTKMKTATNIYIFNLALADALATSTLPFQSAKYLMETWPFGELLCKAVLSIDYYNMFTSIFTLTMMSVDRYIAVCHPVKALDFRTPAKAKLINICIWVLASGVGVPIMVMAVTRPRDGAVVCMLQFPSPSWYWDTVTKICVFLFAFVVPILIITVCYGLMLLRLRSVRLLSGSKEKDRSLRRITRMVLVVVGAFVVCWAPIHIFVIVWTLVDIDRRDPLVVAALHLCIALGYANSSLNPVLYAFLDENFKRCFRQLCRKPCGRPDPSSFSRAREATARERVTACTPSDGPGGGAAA

[4] = biological target: ATP-dependent molecular chaperone HSP82 (Candida albicans (strain WO-1) (Yeast), UniProt C4YTQ8); assay: steroid-induced GRE reporter decrease in yeast – S. cerevisiae, luminescence, Hsp90 inhibitor project, dose response (AID 2400); format: functional, cell-based;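 also: beta-galactosidase luminescence from glucocorticoid response element reporter as proxy for Hsp90 function; inhibitor potency where signal loss means Hsp90 inhibition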
Sequence of ATP-dependent molecular chaperone HSP82 (C4YTQ8 whole entry): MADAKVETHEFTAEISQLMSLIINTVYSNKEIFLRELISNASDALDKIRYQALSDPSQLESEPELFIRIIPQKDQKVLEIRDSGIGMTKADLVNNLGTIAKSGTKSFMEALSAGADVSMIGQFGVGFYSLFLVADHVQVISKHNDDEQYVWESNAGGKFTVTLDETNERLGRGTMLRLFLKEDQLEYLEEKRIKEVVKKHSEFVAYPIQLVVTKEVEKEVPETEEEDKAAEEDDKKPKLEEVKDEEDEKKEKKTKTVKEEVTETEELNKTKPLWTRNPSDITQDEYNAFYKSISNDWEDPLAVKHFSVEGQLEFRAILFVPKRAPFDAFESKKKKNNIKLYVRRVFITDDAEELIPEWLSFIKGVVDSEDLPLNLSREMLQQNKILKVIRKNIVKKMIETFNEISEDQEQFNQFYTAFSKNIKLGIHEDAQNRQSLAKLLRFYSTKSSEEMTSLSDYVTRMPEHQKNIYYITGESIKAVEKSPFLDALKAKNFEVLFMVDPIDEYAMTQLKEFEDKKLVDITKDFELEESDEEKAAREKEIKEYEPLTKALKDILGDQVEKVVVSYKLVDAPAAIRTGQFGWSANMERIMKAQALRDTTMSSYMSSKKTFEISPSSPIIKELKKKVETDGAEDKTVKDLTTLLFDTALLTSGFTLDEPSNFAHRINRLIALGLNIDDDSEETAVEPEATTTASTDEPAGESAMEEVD

[5] = NIH-3T3 fibroblast cytotoxicity, dose response, cytotoxicity control, cell-based, fluorescence, Alamar Blue, secondary assay (AID 2327); format: functional;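 also: NIH-3T3 mouse fibroblasts cultured with fluconazole at 8 µg/mL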
[6] = biological target: T2, Serine/threonine-protein phosphatase (Candida dubliniensis (strain CD36 / CBS 7987 / NCPF 3949 / NRRLY-17841) (Yeast), UniProt B9W6M3); assay: blockers of CaCl2-induced CDRE-lacZ signaling – S. cerevisiae, luminescence, secondary, dose response (AID 2388); format: functional, cell-based;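 also: yeast reporter cells carrying a calcineurin-responsive lacZ construct stimulated with calcium chloride; luminescent beta-galactosidase reporter signal in whole cells rather than isolated phosphatase activity; potency for inhibition where a drop in reporter signal means calcineurin blockade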
T2 sequence (B9W6M3 whole entry): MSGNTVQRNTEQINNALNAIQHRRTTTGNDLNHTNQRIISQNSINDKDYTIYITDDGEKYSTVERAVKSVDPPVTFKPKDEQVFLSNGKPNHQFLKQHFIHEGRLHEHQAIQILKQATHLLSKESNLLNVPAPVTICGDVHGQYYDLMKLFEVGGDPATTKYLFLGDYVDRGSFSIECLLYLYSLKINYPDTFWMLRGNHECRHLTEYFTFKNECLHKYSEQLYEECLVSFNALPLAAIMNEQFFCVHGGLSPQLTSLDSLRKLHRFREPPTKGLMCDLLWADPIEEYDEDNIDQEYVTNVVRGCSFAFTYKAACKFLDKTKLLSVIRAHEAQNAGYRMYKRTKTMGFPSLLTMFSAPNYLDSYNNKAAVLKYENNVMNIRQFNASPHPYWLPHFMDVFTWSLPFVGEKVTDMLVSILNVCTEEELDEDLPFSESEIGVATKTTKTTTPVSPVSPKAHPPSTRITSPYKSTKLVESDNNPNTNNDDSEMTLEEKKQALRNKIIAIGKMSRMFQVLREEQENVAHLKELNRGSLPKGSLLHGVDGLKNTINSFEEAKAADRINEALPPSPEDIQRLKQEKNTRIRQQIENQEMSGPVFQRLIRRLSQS

[7] = fluconazole-exposed Candida albicans growth modulators – fluorescence, retest, confirmation (AID 2467); format: functional, cell-based
[8] = off-target signal loss in HeLa-CEM21 co-culture – HeLa F-luc CTL cells, cherry-picked, counter-screen for HIV-1 Env fusion inhibitor project, dose response (AID 652040); format: functional, cell-based;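 also: potency for signal decrease marking cytotoxic or nonspecific inhibition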
[9] = biological target: T3, Carboxy-terminal domain RNA polymerase II polypeptide A small phosphatase 1 (Homo sapiens, UniProt Q9GZU7); assay: CTDSP1 inhibitors, concentration-response, biochemical, absorbance readout, ultra-high-throughput screen actives (AID 540297); format: functional
T3 sequence (Q9GZU7 whole entry): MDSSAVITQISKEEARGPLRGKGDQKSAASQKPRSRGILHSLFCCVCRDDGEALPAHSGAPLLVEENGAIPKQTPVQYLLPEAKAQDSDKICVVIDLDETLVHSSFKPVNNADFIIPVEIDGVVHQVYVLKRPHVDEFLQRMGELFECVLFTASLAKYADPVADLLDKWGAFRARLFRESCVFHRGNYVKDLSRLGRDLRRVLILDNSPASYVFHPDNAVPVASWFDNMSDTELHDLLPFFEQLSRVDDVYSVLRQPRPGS

[10] = HIV-1 AD8 envelope cell-cell fusion blockers – cherry-pick, dose response (AID 652062); format: functional, cell-based;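 also: luciferase signal from cell-cell fusion driven by HIV-1 clade B AD8 Env; potency is for inhibitors of fusion seen as a drop in luminescence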
[11] = blockers of HIV-1 envelope-mediated cell-cell fusion – cherry-pick, dose response (AID 652057); format: functional, cell-based

In the case of COc1cccc(/C=C2/SC(=S)N(CCC(=O)N3CCOCC3)C2=O)c1, the CC50 (Vero) is reported as 20.1 µM (active).

For Cc1ccccc1[N+]1=C2SCCN2C(O)(c2ccccc2)C1 (configuration not stated), the EC50 [1] was 0.335 µM (active), the EC50 [2] was > 92.5 µM (inactive) and the EC50 (Mu-type opioid receptor) was 18.7 µM (inactive). The EC50 [3] was > 92.5 µM (inactive).

For O=c1c2ccc(Cl)cc2[nH]c(=S)n1Cc1cccnc1, the EC50 [2] was > 92.5 µM (inactive), the EC50 (Mu-type opioid receptor) was 65.6 µM (inactive) and the EC50 [3] was 43.2 µM (inactive).

With CCNc1nc(NC(C)C)nc(NC(C)(C)C)n1 the EC50 [4] was > 160 µM (inactive), the EC50 [5] was > 150 µM (inconclusive) and the EC50 [6] was > 180 µM (inactive). For the same compound, the EC50 [7] was 0.11 µM (active).

With CSc1cccc(N2CC(C(=O)Nc3cccc(S(=O)(=O)N4CCCC4)c3)CC2=O)c1 (configuration not stated) the AC50 [8] was > 70 µM (inactive), the IC50 [9] was 6.81 µM (active) and the AC50 [10] was 11.7 µM (active). The AC50 [11] was 17.8 µM (active).

With CC(=O)Nc1ccc(S(=O)(=O)NCCC(=O)OCC(=O)N2CCN(C(=O)c3ccco3)CC2)cc1 the IC50 [9] was 10.3 µM (active).
